Data: US20250042875A1, “PESTICIDALLY ACTIVE PYRIDAZINONE COMPOUNDS” (SYNGENTA CROP PROTECTION AG, priority 2021, published 2025)

Experiments:
Format in all cases: in vivo
Plutella xylostella = test: Activity against Plutella xylostella (diamond back moth), artificial diet, eggs; conditions: 192 h, application rate 200 ppm, 8 days after infestation, read-out: control in at least one of the two categories (mortality or growth inhibition)
Experimental: Example B7: Activity Against Plutella xylostella (Diamond Back Moth)
24-well microtiter plates with artificial diet were treated with aqueous test solutions prepared from 10′000 ppm DMSO stock solutions by pipetting. After drying, Plutella eggs were pipetted through a plastic stencil onto a gel blotting paper and the plate was closed with it. The samples were assessed for mortality and growth inhibition in comparison to untreated samples 8 days after infestation.

Spodoptera littoralis = test: Activity against Spodoptera littoralis (Egyptian cotton leaf worm), cotton leaf discs, L1 larvae; conditions: foliar, 72 h, application rate 200 ppm, 3 days after infestation, read-out: control in at least one of the three categories (mortality, anti-feedant effect, or growth inhibition)
Experimental: Example B8: Activity Against Spodoptera littoralis (Egyptian Cotton Leaf Worm)
Cotton leaf discs were placed onto agar in 24-well microtiter plates and sprayed with aqueous test solutions prepared from 10′000 ppm DMSO stock solutions. After drying the leaf discs were infested with five L1 larvae. The samples were assessed for mortality, anti-feeding effect, and growth inhibition in comparison to untreated samples 3 days after infestation. Control of Spodoptera littoralis by a test sample is given when at least one of the categories mortality, anti-feedant effect, and growth inhibition is higher than the untreated sample.

Chilo suppressalis = test: Activity against Chilo suppressalis (striped rice stemborer), artificial diet, L2 larvae; conditions: 144 h, application rate 200 ppm, 6 days after infestation, read-out: control in at least one of the three categories (mortality, anti-feedant effect, or growth inhibition)
Experimental: Example B1: Activity Against Chilo suppressalis (Striped Rice Stemborer)
24-well microtiter plates with artificial diet were treated with aqueous test solutions prepared from 10′000 ppm DMSO stock solutions by pipetting. After drying, the plates were infested with L2 larvae (6-8 per well). The samples were assessed for mortality, anti-feeding effect, and growth inhibition in comparison to untreated samples 6 days after infestation. Control of Chilo suppressalis by a test sample is given when at least one of the categories mortality, anti-feedant effect, and growth inhibition is higher than the untreated sample.

Diabrotica balteata = test: Activity against Diabrotica balteata (corn root worm), maize sprouts, L2 larvae; conditions: 96 h, application rate 200 ppm, 4 days after infestation, read-out: control in at least one of the two categories (mortality or growth inhibition)
Experimental: Example B2: Activity Against Diabrotica Balteata (Corn Root Worm)
Maize sprouts placed onto an agar layer in 24-well microtiter plates were treated with aqueous test solutions prepared from 10′000 ppm DMSO stock solutions by spraying. After drying, the plates were infested with L2 larvae (6 to 10 per well). The samples were assessed for mortality and growth inhibition in comparison to untreated samples 4 days after infestation.

Euschistus heros = test: Activity against Euschistus heros (neotropical brown stink bug), soybean leaves, N2 nymphs; conditions: 120 h, application rate 200 ppm, 5 days after infestation, read-out: effect in at least one of the two categories (mortality or growth inhibition)
Experimental: Example B3: Activity Against Euschistus heros (Neotropical Brown Stink Bug)
Soybean leaves on agar in 24-well microtiter plates were sprayed with aqueous test solutions prepared from 10′000 ppm DMSO stock solutions. After drying the leaves were infested with N2 nymphs. The samples were assessed for mortality and growth inhibition in comparison to untreated samples 5 days after infestation.

Myzus persicae [1] = test: Activity against Myzus persicae (green peach aphid), intrinsic activity; conditions: 120 h, test rate 12 ppm, 5 days after infestation
Description: Example B6: Activity Against Myzus persicae (Green Peach Aphid). Intrinsic Activity
Test compounds prepared from 10′000 ppm DMSO stock solutions were applied by pipette into 24-well microtiter plates and mixed with sucrose solution. The plates were closed with a stretched Parafilm. A plastic stencil with 24 holes was placed onto the plate and infested pea seedlings were placed directly on the Parafilm. The infested plate was closed with a gel blotting paper and another plastic stencil and then turned upside down. The samples were assessed for mortality 5 days after infestation.

Myzus persicae [2] = test: Activity against Myzus persicae (green peach aphid), feeding/contact activity; conditions: 144 h, application rate 200 ppm, 6 days after infestation
Experimental: Example B5: Activity Against Myzus persicae (Green Peach Aphid). Feeding/Contact Activity
Sunflower leaf discs were placed onto agar in a 24-well microtiter plate and sprayed with aqueous test solutions prepared from 10′000 ppm DMSO stock solutions. After drying, the leaf discs were infested with an aphid population of mixed ages. The samples were assessed for mortality 6 days after infestation.

C[C@H](NC(=O)c1cc(Br)cc(I)c1)c1ncnn1-c1ccc(=O)n(C)n1 [P30, 3-bromo-5-iodo-N-[(1S)-1-[2-(1-methyl-6-oxo-pyridazin-3-yl)-1,2,4-triazol-3-yl]ethyl]benzamide]
≥ 80%: percent control (mortality or growth inhibition) at 200 ppm (Plutella xylostella) | percent control (mortality, anti-feedant effect or growth inhibition) at 200 ppm (Spodoptera littoralis) | percent control (mortality, anti-feedant effect or growth inhibition) at 200 ppm (Chilo suppressalis) | percent control (mortality or growth inhibition) at 200 ppm (Diabrotica balteata) | percent effect (mortality or growth inhibition) at 200 ppm (Euschistus heros) | mortality at 12 ppm (Myzus persicae [1]) | mortality at 200 ppm (Myzus persicae [2])

CC(NC(=O)c1cc(OC(F)F)cc(C2(C#N)CC2)c1)c1nccnc1-c1ccc(=O)n(C)n1 (centres unmarked) [P44, 3-(1-cyanocyclopropyl)-5-(difluoromethoxy)-N-[1-[3-(1-methyl-6-oxo-pyridazin-3-yl)pyrazin-2-yl]ethyl]benzamide]
≥ 80%: percent control (mortality or growth inhibition) at 200 ppm (Plutella xylostella) | percent control (mortality, anti-feedant effect or growth inhibition) at 200 ppm (Spodoptera littoralis) | percent control (mortality, anti-feedant effect or growth inhibition) at 200 ppm (Chilo suppressalis) | percent effect (mortality or growth inhibition) at 200 ppm (Euschistus heros) | mortality at 12 ppm (Myzus persicae [1]) | mortality at 200 ppm (Myzus persicae [2])

C[C@@H](c1ncnn1C1=NN(C)C(=O)CC1)N(C)C(=O)c1cc(Cl)cc(S(=O)(=O)C(F)(F)F)c1 [P22, 3-chloro-N-methyl-N-[(1S)-1-[2-(1-methyl-6-oxo-4,5-dihydropyridazin-3-yl)-1,2,4-triazol-3-yl]ethyl]-5-(trifluoromethylsulfonyl) benzamide]
≥ 80%: percent control (mortality or growth inhibition) at 200 ppm (Plutella xylostella) | percent control (mortality, anti-feedant effect or growth inhibition) at 200 ppm (Spodoptera littoralis) | percent control (mortality, anti-feedant effect or growth inhibition) at 200 ppm (Chilo suppressalis) | percent control (mortality or growth inhibition) at 200 ppm (Diabrotica balteata) | mortality at 12 ppm (Myzus persicae [1]) | mortality at 200 ppm (Myzus persicae [2])

C[C@H](NC(=O)c1cc(Br)cc(OC(F)(F)F)c1)c1ncnn1-c1ccc(=O)n(C)n1 [P40, 3-bromo-N-[(1S)-1-[2-(1-methyl-6-oxo-pyridazin-3-yl)-1,2,4-triazol-3-yl]ethyl]-5-(trifluoromethoxy)benzamide]
≥ 80%: percent control (mortality or growth inhibition) at 200 ppm (Plutella xylostella) | percent control (mortality, anti-feedant effect or growth inhibition) at 200 ppm (Spodoptera littoralis) | percent control (mortality, anti-feedant effect or growth inhibition) at 200 ppm (Chilo suppressalis) | percent control (mortality or growth inhibition) at 200 ppm (Diabrotica balteata) | percent effect (mortality or growth inhibition) at 200 ppm (Euschistus heros) | mortality at 12 ppm (Myzus persicae [1]) | mortality at 200 ppm (Myzus persicae [2])

CC(NC(=O)c1cc(Cl)cc(C(F)(F)F)c1)c1nccnc1-c1ccc(=O)n(C)n1 (centres unmarked) [P7, 3-chloro-N-[1-[3-(1-methyl-6-oxo-pyridazin-3-yl)pyrazin-2-yl]ethyl]-5-(trifluoromethyl)benzamide]
≥ 80%: percent control (mortality or growth inhibition) at 200 ppm (Plutella xylostella) | percent control (mortality, anti-feedant effect or growth inhibition) at 200 ppm (Spodoptera littoralis) | percent control (mortality, anti-feedant effect or growth inhibition) at 200 ppm (Chilo suppressalis) | percent control (mortality or growth inhibition) at 200 ppm (Diabrotica balteata) | mortality at 12 ppm (Myzus persicae [1]) | mortality at 200 ppm (Myzus persicae [2])

CC(NC(=O)c1cc(OC(F)F)cc(C(F)(F)F)c1)c1nccnc1-c1ccc(=O)n(C)n1 (centres unmarked) [P14, 3-(difluoromethoxy)-N-[1-[3-(1-methyl-6-oxo-pyridazin-3-yl)pyrazin-2-yl]ethyl]-5-(trifluoromethyl)benzamide]
≥ 80%: percent control (mortality or growth inhibition) at 200 ppm (Plutella xylostella) | percent control (mortality, anti-feedant effect or growth inhibition) at 200 ppm (Spodoptera littoralis) | percent control (mortality, anti-feedant effect or growth inhibition) at 200 ppm (Chilo suppressalis) | percent control (mortality or growth inhibition) at 200 ppm (Diabrotica balteata) | percent effect (mortality or growth inhibition) at 200 ppm (Euschistus heros) | mortality at 12 ppm (Myzus persicae [1]) | mortality at 200 ppm (Myzus persicae [2])

C[C@H](NC(=O)c1cc(Cl)cc(Br)c1)c1ncnn1-c1ccc(=O)n(C)n1 [P27, 3-bromo-5-chloro-N-[(1S)-1-[2-(1-methyl-6-oxo-pyridazin-3-yl)-1,2,4-triazol-3-yl]ethyl]benzamide]
≥ 80%: percent control (mortality or growth inhibition) at 200 ppm (Plutella xylostella) | percent control (mortality, anti-feedant effect or growth inhibition) at 200 ppm (Spodoptera littoralis) | percent control (mortality, anti-feedant effect or growth inhibition) at 200 ppm (Chilo suppressalis) | percent control (mortality or growth inhibition) at 200 ppm (Diabrotica balteata) | percent effect (mortality or growth inhibition) at 200 ppm (Euschistus heros) | mortality at 12 ppm (Myzus persicae [1]) | mortality at 200 ppm (Myzus persicae [2])

CC(NC(=O)c1cc(C(F)(F)F)cc(C2(C#N)CC2)c1)c1nccnc1-c1ccc(=O)n(C)n1 (centres unmarked) [P24, 3-(1-cyanocyclopropyl)-N-[1-[3-(1-methyl-6-oxo-pyridazin-3-yl)pyrazin-2-yl]ethyl]-5-(trifluoromethyl) benzamide]
≥ 80%: percent control (mortality or growth inhibition) at 200 ppm (Plutella xylostella) | percent control (mortality, anti-feedant effect or growth inhibition) at 200 ppm (Spodoptera littoralis) | percent control (mortality, anti-feedant effect or growth inhibition) at 200 ppm (Chilo suppressalis) | mortality at 12 ppm (Myzus persicae [1]) | mortality at 200 ppm (Myzus persicae [2])

C[C@H](NC(=O)c1cc(Cl)nc(C2(C#N)CC2)c1)c1ncnn1-c1ccc(=O)n(C)n1 [P35, 2-chloro-6-(1-cyanocyclopropyl)-N-[(1S)-1-[2-(1-methyl-6-oxo-pyridazin-3-yl)-1,2,4-triazol-3-yl]ethyl]pyridine-4-carboxamide]
≥ 80%: percent control (mortality or growth inhibition) at 200 ppm (Plutella xylostella) | percent control (mortality, anti-feedant effect or growth inhibition) at 200 ppm (Chilo suppressalis) | percent effect (mortality or growth inhibition) at 200 ppm (Euschistus heros) | mortality at 12 ppm (Myzus persicae [1]) | mortality at 200 ppm (Myzus persicae [2])

CC(NC(=O)c1cc(Cl)nc(C2(C#N)CC2)c1)c1nccnc1-c1ccc(=O)n(C)n1 (centres unmarked) [P34, 2-chloro-6-(1-cyanocyclopropyl)-N-[1-[3-(1-methyl-6-oxo-pyridazin-3-yl)pyrazin-2-yl]ethyl]pyridine-4-carboxamide]
≥ 80%: percent control (mortality or growth inhibition) at 200 ppm (Plutella xylostella) | percent control (mortality, anti-feedant effect or growth inhibition) at 200 ppm (Spodoptera littoralis) | percent control (mortality, anti-feedant effect or growth inhibition) at 200 ppm (Chilo suppressalis) | mortality at 12 ppm (Myzus persicae [1]) | mortality at 200 ppm (Myzus persicae [2])

CCn1nc(-n2ncnc2[C@H](C)NC(=O)c2cc(Cl)cc(S(=O)(=O)C(F)(F)F)c2)ccc1=O [P17, 3-chloro-N-[(1S)-1-[2-(1-ethyl-6-oxo-pyridazin-3-yl)-1,2,4-triazol-3-yl]ethyl]-5-(trifluoromethylsulfonyl)benzamide]
≥ 80%: percent control (mortality or growth inhibition) at 200 ppm (Plutella xylostella) | percent control (mortality, anti-feedant effect or growth inhibition) at 200 ppm (Spodoptera littoralis) | percent control (mortality, anti-feedant effect or growth inhibition) at 200 ppm (Chilo suppressalis) | percent control (mortality or growth inhibition) at 200 ppm (Diabrotica balteata) | mortality at 12 ppm (Myzus persicae [1]) | mortality at 200 ppm (Myzus persicae [2])

C[C@H](NC(=O)c1cc(OC(F)F)cc(C2(C#N)CC2)c1)c1ncnn1-c1ccc(=O)n(C)n1 [P45, 3-(1-cyanocyclopropyl)-5-(difluoromethoxy)-N-[(1S)-1-[2-(1-methyl-6-oxo-pyridazin-3-yl)-1,2,4-triazol-3-yl]ethyl]benzamide]
≥ 80%: percent control (mortality, anti-feedant effect or growth inhibition) at 200 ppm (Chilo suppressalis) | percent effect (mortality or growth inhibition) at 200 ppm (Euschistus heros) | mortality at 12 ppm (Myzus persicae [1]) | mortality at 200 ppm (Myzus persicae [2])

CC(NC(=O)c1cc(Br)cc(C(F)(F)F)c1)c1nccnc1-c1ccc(=O)n(C)n1 (centres unmarked) [P10, 3-bromo-N-[1-[3-(1-methyl-6-oxo-pyridazin-3-yl)pyrazin-2-yl]ethyl]-5-(trifluoromethyl)benzamide]
≥ 80%: percent control (mortality or growth inhibition) at 200 ppm (Plutella xylostella) | percent control (mortality, anti-feedant effect or growth inhibition) at 200 ppm (Spodoptera littoralis) | percent control (mortality, anti-feedant effect or growth inhibition) at 200 ppm (Chilo suppressalis) | percent control (mortality or growth inhibition) at 200 ppm (Diabrotica balteata) | mortality at 12 ppm (Myzus persicae [1]) | mortality at 200 ppm (Myzus persicae [2])

CC(NC(=O)c1cc(Br)cc(C(F)(F)F)c1)c1nccnc1-c1cn(CC(F)F)c(=O)cn1 (centres unmarked) [P49, 3-bromo-N-[1-[3-[4-(2,2-difluoroethyl)-5-oxo-pyrazin-2-yl]pyrazin-2-yl]ethyl]-5-(trifluoromethyl)benzamide]
≥ 80%: percent control (mortality or growth inhibition) at 200 ppm (Plutella xylostella) | percent control (mortality, anti-feedant effect or growth inhibition) at 200 ppm (Spodoptera littoralis) | percent control (mortality, anti-feedant effect or growth inhibition) at 200 ppm (Chilo suppressalis) | percent control (mortality or growth inhibition) at 200 ppm (Diabrotica balteata) | mortality at 12 ppm (Myzus persicae [1]) | mortality at 200 ppm (Myzus persicae [2])
